Experimental data as given in PMC11949107, “Polyunsaturated fatty acids and their endocannabinoid-related metabolites activity at human TRPV1 and TRPA1 ion channels expressed in HEK-293 cells” (PeerJ, 2025).
Where “and” joins values, the source holds several entries; their conditions need not be identical. Equal entries are not always repeated.

Experiments:
HEK-293 EV cells = assay: Calcium 5 dye [Ca]i assay in HEK-293 empty vector (EV) cells; type: cell-based, human; conditions: 10 µM
Experimental: (§1) The cells were incubated in a 5% CO2 humidified atmosphere at 37 °C. Upon reaching approximately 90% confluence in 75 cm^2 flasks, they were trypsinized and transferred to poly-D-lysine coated 96-well plates (Corning, Castle Hill, NSW, Australia) in L-15 medium supplemented with 1% FBS, 100 U penicillin and 100 µg streptomycin ml^−1 (1% P/S), and 15 mM glucose (80 µL volume per well). After an overnight incubation (maximum of 16 h) in humidified room air at 37 °C, TRPV1 and TRPA1 receptor expression was induced 4 h before experimentation by adding to each well 10 µL tetracycline solution to a final concentration of 1 µg ml^−1.
Intracellular calcium [Ca]i levels were assessed using the calcium 5 kit from Molecular Devices (# R8186, Sunnyvale, CA, USA) on a FlexStation 3 Microplate Reader (Molecular Devices, Sunnyvale, CA, USA). […] 90 µL of the dye were loaded into each well of the plate and incubated for 1 h before reading in the FlexStation 3 at 37 °C. […] After 1 min of baseline recording, 20 µL of the drug, dissolved in HBSS with 1% dimethyl sulfoxide (DMSO) (cat # D2650; Sigma-Aldrich, Melbourne, Australia) was added (final DMSO concentration was 0.1% in well).
(§2) The response to agonists was expressed as a percentage change from the average baseline measurement taken for 60s before adding drug. Changes in fluorescence resulting from the addition of solvent were subtracted before normalization to baseline. Concentration–response curves (CRC), Emax and EC50 values were determined using a three-parameter logistic equation (GraphPad Prism, San Diego, CA, USA). […] Potencies were expressed as pEC50, which is the negative log of EC50 in moles per litre (Molar). Where appropriate, unpaired Student’s t-test were used to compare the responses of individual compounds in different conditions, while a one-way ANOVA followed by Dunnett’s multiple comparisons test was used to assess potential differences in responses elicited by a range of compounds. P < 0.05 was considered statistically significant.

human TRPV1 = target: T1, human TRPV1 (Homo sapiens, UniProt Q8NER1); assay: Calcium 5 dye [Ca]i assay in HEK-293 Flp-In T-REx cells expressing TRPV1 (agonist response); type: cell-based; conditions: for Elevation of [Ca]i in HEK-293 TRPV1 cells compared with HEK-293 EV cells / Change of Ca5 fluorescence, Mean ± SEM, TRPV1 (10 µM): 10 µM; for Change of Ca5 fluorescence, Mean ± SEM, TRPV1 (10 µM): HEK-293 TRPV1 cells, percentage of predrug baseline; for TRPV1 response, Mean± SEM (N): 30 µM, one-way ANOVA comparison with capsaicin 10 µM; for Change in Ca5 fluorescence, individual experiments (CRC raw data): TRPV1 cells; for Emax at 30 µM: HEK293, read-out: Emax ± SEM % TRPV1 (30 µM)
T1 construct: Life Technologies (cells); host or cells: Flp-In T-REx HEK-293
T1 sequence (Q8NER1 whole entry): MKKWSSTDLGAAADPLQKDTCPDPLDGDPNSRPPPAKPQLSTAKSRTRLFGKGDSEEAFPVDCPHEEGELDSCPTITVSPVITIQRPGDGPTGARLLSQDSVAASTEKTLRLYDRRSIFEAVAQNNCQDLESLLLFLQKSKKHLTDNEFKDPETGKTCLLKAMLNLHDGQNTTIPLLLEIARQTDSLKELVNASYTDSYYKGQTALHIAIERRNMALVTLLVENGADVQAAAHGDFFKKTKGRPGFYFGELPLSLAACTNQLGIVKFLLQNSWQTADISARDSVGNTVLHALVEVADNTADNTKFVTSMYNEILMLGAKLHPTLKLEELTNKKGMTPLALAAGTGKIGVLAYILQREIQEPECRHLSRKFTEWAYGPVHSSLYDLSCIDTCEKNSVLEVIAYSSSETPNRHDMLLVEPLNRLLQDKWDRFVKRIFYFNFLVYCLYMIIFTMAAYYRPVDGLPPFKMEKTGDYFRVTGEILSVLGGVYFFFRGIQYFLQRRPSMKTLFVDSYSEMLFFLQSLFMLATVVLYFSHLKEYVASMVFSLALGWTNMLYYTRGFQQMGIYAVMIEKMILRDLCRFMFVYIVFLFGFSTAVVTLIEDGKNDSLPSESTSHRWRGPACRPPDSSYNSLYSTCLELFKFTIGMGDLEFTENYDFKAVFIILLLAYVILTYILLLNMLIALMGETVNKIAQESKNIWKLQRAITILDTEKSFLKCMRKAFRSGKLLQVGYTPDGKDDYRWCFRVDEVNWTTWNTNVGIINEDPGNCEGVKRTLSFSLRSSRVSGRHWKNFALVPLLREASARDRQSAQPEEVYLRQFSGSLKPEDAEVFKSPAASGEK
Experimental: as §1
(§3) Intracellular calcium [Ca]i levels were assessed using the calcium 5 kit from Molecular Devices (# R8186, Sunnyvale, CA, USA) on a FlexStation 3 Microplate Reader (Molecular Devices, Sunnyvale, CA, USA). […] Probenecid (cat # 50027; Biotium) which helps to prevent expulsion of calcium indicator from the cells was added to a final concentration of 1.25 mM. 90 µL of the dye were loaded into each well of the plate and incubated for 1 h before reading in the FlexStation 3 at 37 °C. Fluorescence was recorded every 2 s (λ excitation = 485 nm, λ emission = 525 nm) for 5 min. After 1 min of baseline recording, 20 µL of the drug, dissolved in HBSS with 1% dimethyl sulfoxide (DMSO) (cat # D2650; Sigma-Aldrich, Melbourne, Australia) was added (final DMSO concentration was 0.1% in well).
as §2

human TRPA1 = target: T2, human TRPA1 (Homo sapiens, UniProt O75762); assay: Calcium 5 dye [Ca]i assay in HEK-293 Flp-In T-REx cells expressing TRPA1 (agonist response); type: cell-based; conditions: for Elevation of [Ca]i in HEK-293 TRPA1 cells compared with HEK-293 EV cells: 10 µM (cinnamaldehyde 300 µM); for Change of Ca5 fluorescence, Mean ± SEM, TRPA1 (10 µM): HEK-293 TRPA1 cells, percentage of predrug baseline; for TRPA1 activation at the highest concentration tested / TRPA1 response compared with the highest concentration of cinnamaldehyde (300 µM) / TRPA1 response, Mean± SEM (N): 30 µM; for TRPA1 response, Mean± SEM (N): one-way ANOVA comparison with cinnamaldehyde 300 µM; for [Ca]i response (change in fluorescence), individual replicates: sheet Figure 3(E); for Emax at 30 µM: HEK293, read-out: Emax ± SEM % TRPA1 (30 µM); for Change in Ca5 fluorescence, individual experiments (CRC raw data): TRPA1 cells
T2 construct: Life Technologies (cells); host or cells: Flp-In T-REx HEK-293
T2 sequence (O75762 whole entry): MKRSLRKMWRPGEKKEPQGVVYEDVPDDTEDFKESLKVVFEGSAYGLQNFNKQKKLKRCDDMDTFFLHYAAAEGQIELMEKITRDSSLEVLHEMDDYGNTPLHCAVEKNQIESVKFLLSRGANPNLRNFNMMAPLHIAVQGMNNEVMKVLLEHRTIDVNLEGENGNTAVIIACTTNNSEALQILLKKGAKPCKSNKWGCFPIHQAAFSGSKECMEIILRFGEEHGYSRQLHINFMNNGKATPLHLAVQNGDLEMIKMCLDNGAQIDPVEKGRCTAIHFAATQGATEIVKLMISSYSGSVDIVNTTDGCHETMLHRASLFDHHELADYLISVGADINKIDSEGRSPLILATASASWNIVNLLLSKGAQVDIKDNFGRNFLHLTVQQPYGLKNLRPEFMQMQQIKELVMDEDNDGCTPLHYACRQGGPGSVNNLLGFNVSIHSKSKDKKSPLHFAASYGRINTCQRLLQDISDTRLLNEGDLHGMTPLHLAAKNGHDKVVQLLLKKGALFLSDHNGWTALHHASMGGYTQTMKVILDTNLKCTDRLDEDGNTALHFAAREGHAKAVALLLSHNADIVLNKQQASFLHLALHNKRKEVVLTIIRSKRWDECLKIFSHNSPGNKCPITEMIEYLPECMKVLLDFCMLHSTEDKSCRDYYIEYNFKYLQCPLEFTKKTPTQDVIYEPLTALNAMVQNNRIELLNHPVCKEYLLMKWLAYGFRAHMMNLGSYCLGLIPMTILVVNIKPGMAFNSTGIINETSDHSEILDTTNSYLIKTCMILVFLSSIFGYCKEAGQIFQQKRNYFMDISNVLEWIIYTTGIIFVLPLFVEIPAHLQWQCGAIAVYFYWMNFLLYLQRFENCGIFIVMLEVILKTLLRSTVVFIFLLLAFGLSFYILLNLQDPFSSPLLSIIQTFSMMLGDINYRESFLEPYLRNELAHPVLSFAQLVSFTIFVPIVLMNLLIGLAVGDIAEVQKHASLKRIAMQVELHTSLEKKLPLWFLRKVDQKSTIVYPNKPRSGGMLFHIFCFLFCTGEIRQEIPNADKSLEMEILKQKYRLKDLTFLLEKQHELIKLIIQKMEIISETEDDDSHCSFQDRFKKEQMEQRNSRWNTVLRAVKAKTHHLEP
Experimental: as §1, §3, §2

[1] = HEK-293 EV cells, percentage of predrug baseline

Row | Structure (SMILES) | Change of Ca5 fluorescence, Mean ± SEM, EV (10 µM) (HEK-293 EV cells; [1]) [%] | Elevation of [Ca]i in HEK-293 TRPV1 cells compared with HEK-293 EV cells (human TRPV1) | Change of Ca5 fluorescence, Mean ± SEM, TRPV1 (10 µM) (human TRPV1) [%] | TRPV1 response, Mean± SEM (N) (human TRPV1) | Change in Ca5 fluorescence, individual experiments (CRC raw data) (human TRPV1; log concentration -4.52288 (M)) | Change in Ca5 fluorescence, individual experiments (CRC raw data) (human TRPV1; log concentration -5 (M)) | Change in Ca5 fluorescence, individual experiments (CRC raw data) (human TRPV1; log concentration -5.52288 (M)) | Change in Ca5 fluorescence, individual experiments (CRC raw data) (human TRPV1; log concentration -6 (M)) | Change in Ca5 fluorescence, individual experiments (CRC raw data) (human TRPV1; log concentration -6.52288 (M)) | Change in Ca5 fluorescence, individual experiments (CRC raw data) (human TRPV1; log concentration -7 (M)) | Elevation of [Ca]i in HEK-293 TRPA1 cells compared with HEK-293 EV cells (human TRPA1) | Change of Ca5 fluorescence, Mean ± SEM, TRPA1 (10 µM) (human TRPA1) [%] | TRPA1 activation at the highest concentration tested (human TRPA1) | TRPA1 response compared with the highest concentration of cinnamaldehyde (300 µM) (human TRPA1) | TRPA1 response, Mean± SEM (N) (human TRPA1) | [Ca]i response (change in fluorescence), individual replicates (human TRPA1; concentration -4.52288 (log)) | [Ca]i response (change in fluorescence), individual replicates (human TRPA1; concentration -5 (log)) | [Ca]i response (change in fluorescence), individual replicates (human TRPA1; concentration -5.52288 (log)) | [Ca]i response (change in fluorescence), individual replicates (human TRPA1; concentration -6 (log)) | [Ca]i response (change in fluorescence), individual replicates (human TRPA1; concentration -6.52288 (log)) | further results
1 | CCCCC/C=C\C/C=C\C/C=C\C/C=C\CCCCOC(CO)CO [2-AG ether, 2-arachidonoylglycerol ether] | 8 ± 2 | did not produce a notable change | 39 ± 24 | 63± 56 | 153.653 and 87.759 and 41.6511 and 12.8054 and 5.8133 and 75.505 | 155.318 and 30.8581 and 23.9661 and 3.174 and 0.3103 and 20.3939 | 16.5791 and 3.033 and 7.578 and 1.888 and 0.6433 and 11.7313 | 7.918 and 3.6522 and 9.605 and 2.557 and 2.906 and 1.314 | 3.121 and 1.724 and 12.4457 and 2.326 and 0.7415 and 2.165 | 2.256 and 4.13 and 8.499 and 1.026 and 2.717 and 1.813 | did not produce a change | 91 ± 40 | activated TRPA1 | significantly smaller | 223 ± 60 | 16.8824 and 397.614 and 5.373 and 104.863 and 520.454 and 293.014 | 6.439 and 205.99 and 4.156 and 6.3216 and 170.328 and 155.005 | 2.263 and 3.295 and 6.759 and 5.886 and 11.1841 and 49.3437 | 11.4488 and 1.879 and 1.228 and 4.253 and 4.557 and 3.684 | 9.48 and 8.5131 and 4.1 and 4.971 and 4.357 and 3.125 | Emax ± SEM % TRPV1 (30 µM) (human TRPV1; highest tested concentration (30 µM) or derived from concentration-response curves (DHEA, AEA, NADA, capsaicin)): 63 ± 23%; [Ca]i response (change in fluorescence), individual replicates (human TRPA1; concentration -7 (log)): 0.2809 and 4.873 and 5.959 and 5.37 and 6.745 and 2.857; Emax ± SEM % TRPA1 (30 µM) (human TRPA1; highest tested concentration (30 µM) or derived from concentration-response curves (cinnamaldehyde)): 223 ± 87%
2 | CCCCC/C=C\C/C=C\C/C=C\C/C=C\CCCC(=O)OC(CO)CO [2-AG, 2-arachidonoylglycerol] | 4 ± 2 | did not produce a notable change | 30 ± 12 | 78± 56 | 27.3329 and 112.734 and 162.217 and 44.4524 and 123.109 and 0.2559 | 7.357 and 86.123 and 26.0517 and 22.0298 and 37.7022 and 3.715 | 1.982 and 59.8686 and 3.625 and 7.304 and 11.7183 and 5.763 | 3.178 and 11.4308 and 1.524 and 2.296 and 1.51 and 5.0359 | 2.799 and 5.91 and 1.131 and 13.0737 and 2.188 and 2.217 | 3.868 and 2.533 and 1.007 and 9.752 and 4.95 and 2.563 | did not produce a change | 6 ± 1 | activated TRPA1 | significantly smaller | 109 ± 60 | 14.9622 and 7.179 and 134.366 and 9.127 and 431.447 and 54.77 | 4.64 and 4.022 and 10.3661 and 3.3919 and 6.211 and 4.731 | 6.153 and 3.314 and 8.987 and 3.008 and 4.615 and 3.811 | 6.477 and 4.178 and 4.8275 and 2.1815 and 3.7711 and 3.334 | 5.571 and 5.908 and 5.712 and 6.071 and 7.256 and 4.936 | Emax at 30 µM (human TRPV1): 78 ± 26%; Emax at 30 µM (human TRPA1): 109 ± 68%; [Ca]i response (change in fluorescence), individual replicates (human TRPA1; concentration -7 (log)): 4.596 and 9.253 and 10.2641 and 5.393 and 9.276 and 4.379
3 | CCCCC/C=C\C/C=C\CCCCCCCC(=O)OC(CO)CO [2-LG, 2-linoleoyl glycerol] | – | significantly greater | 41 ± 13 | 75± 56 | 94.4158 and 105.55 and 25.614 and 76.6153 and 45.9507 and 101.137 | 77.397 and 64.9743 and 11.4263 and 68.0539 and 10.4174 and 14.0616 | 11.4427 and 8.3913 and 3.912 and 22.8641 and 8.0659 and 6.3713 | 1.494 and 8.29 and 4.971 and 3.518 and 4.176 and 6.083 | -0.2355 and 4.786 and 26.5089 and 15.6203 and 3.581 and 2.28 | 0.8392 and 7.338 and 6.807 and 12.2096 and 4.264 and 3.998 | – | 6 ± 2 | no effect | significantly smaller | 10± 60 | – | – | – | – | – | Change of Ca5 fluorescence, Mean ± SEM, EV (10 µM) (HEK-293 EV cells): 4 ± 1%; Emax at 30 µM (human TRPV1): 75 ± 13%; Emax at 30 µM (human TRPA1): 10 ± 4%; Change in Ca5 fluorescence, individual experiments (CRC raw data) (human TRPA1; log concentration -4.52288 (M)): 12.5375 and 5.756 and 5.697 and 4.08 and 3.702 and 27.8122; Change in Ca5 fluorescence, individual experiments (CRC raw data) (human TRPA1; log concentration -5 (M)): 11.4202 and 3.2095 and 1.996 and 7.055 and 3.7574 and 11.3273; Change in Ca5 fluorescence, individual experiments (CRC raw data) (human TRPA1; log concentration -5.52288 (M)): 11.369 and 3.556 and 1.657 and 5.485; Change in Ca5 fluorescence, individual experiments (CRC raw data) (human TRPA1; log concentration -6 (M)): 12.4294 and 3.284 and 5.41 and 5.662 and 4.232 and 5.177; Change in Ca5 fluorescence, individual experiments (CRC raw data) (human TRPA1; log concentration -6.52288 (M)): 12.1064 and 3.832 and 1.455 and 7.527; Change in Ca5 fluorescence, individual experiments (CRC raw data) (human TRPA1; log concentration -7 (M)): 15.3703 and 7.007 and 2.201 and 137.719
